Experimental data: paper PMC6370799, “Flavones hydroxylated at 5, 7, 3′ and 4′ ameliorate skin fibrosis via inhibiting activin receptor-like kinase 5 kinase activity” (Cell Death & Disease, 2019)

Target: T1, activin receptor-like kinase 5 (ALK5) (Homo sapiens, UniProt P36897)
T1 construct: gene TGFBR1; GST-ALK5
T1 sequence (P36897 34-503): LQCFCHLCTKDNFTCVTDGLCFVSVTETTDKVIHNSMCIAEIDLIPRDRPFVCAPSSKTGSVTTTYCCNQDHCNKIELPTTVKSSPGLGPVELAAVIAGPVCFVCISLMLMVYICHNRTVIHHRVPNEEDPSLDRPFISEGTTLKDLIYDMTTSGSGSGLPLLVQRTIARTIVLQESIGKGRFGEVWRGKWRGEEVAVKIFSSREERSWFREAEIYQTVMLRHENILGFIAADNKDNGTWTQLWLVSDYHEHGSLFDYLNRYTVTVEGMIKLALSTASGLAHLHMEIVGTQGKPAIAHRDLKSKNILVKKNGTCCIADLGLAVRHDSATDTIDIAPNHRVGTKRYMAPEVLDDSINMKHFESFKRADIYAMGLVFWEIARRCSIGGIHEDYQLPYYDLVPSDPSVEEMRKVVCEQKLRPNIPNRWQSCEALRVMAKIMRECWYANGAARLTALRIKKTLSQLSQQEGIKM
Assay: LanthaScreen Eu kinase binding assay (TR-FRET tracer displacement); also in vitro GST-Smad3 phosphorylation assay

SMILES | IC50
O=c1cc(-c2ccc(O)c(O)c2)oc2cc(O)cc(O)c12 [luteolin] | 1060 nM
O=c1c(O)c(-c2cc(O)c(O)c(O)c2)oc2cc(O)cc(O)c12 [myricetin] | 4080 nM
O=c1c(O)c(-c2ccc(O)c(O)c2)oc2cc(O)cc(O)c12 [quercetin] | 1480 nM
